What was measured:
KCC2 mRNA = KCC2 mRNA RT-qPCR in microdissected spinal cord dorsal horn; format: in vivo, mouse; settings: KP 10 mg/kg; after PSNL vs vehicle
Experimental: oligodT-initiated reverse transcription of 1 μg total RNA, DNA-se treated, was subjected to RT-qPCR using primers specific for KCC2 for rat and KCC2 for human sequences, normalized for neuronal βIII-tubulin, as previously described (Yeo et al., 2009, J Neurosci 29:14652-14662). For cultured neurons, total RNA was extracted from pelleted cells, and for spinal cord tissue it was extracted from microdissected lumbar spinal cord dorsal horn.
With the aforementioned findings and in view of the SCDH as the likely site of analgesic action of KP (Coull et al., 2003, Nature 424:938-942; Gagnon et al., 2013, Nat Med 19:1524-1528), SCDH KCC2 expression and function in nerve injury and response to KP was assessed. […] To measure KCC2 mRNA, SCDH Rexed-layers I-II were microdissected with laser capture followed by RT-qPCR. SCDH KCC2 protein expression was measured morphometrically after KCC2 immunolabeling using SCDH laminae I-II as the region-of-interest (FIG. 5B).

δ-cat = δ-cat nuclear translocation in primary neurons, immunolabeling morphometry; format: cell-based, rat; settings: KP vs vehicle, FIG. 8C
Experimental: Immunocytochemistry labeling of cultured neuronal cells was carried out as previously described (Liedtke et al., 2013, Small 9, 1066-1075; Yeo et al., 2009, J Neurosci 29:14652-14662; Yeo et al., 2013, Proc Natl Acad Sci USA 110:4315-4320). Primary antibodies are shown in the antibody table. Anti-KCC2 primary antibodies were validated with developing rat primary cortical neurons; we observed an increase in staining pattern that tightly matched increase of KCC2 mRNA expression (Liedtke et al., 2013, Small 9:1066-1075; Yeo et al., 2009, J Neurosci 29:14652-14662.; Yeo et al., 2013, Proc Natl Acad Sci USA 110:4315-4320). Secondary antibodies used were goat anti-mouse IgG Alexa Fluor 594 (Invitrogen A11032) and goat anti-rabbit IgG Alexa Fluor 594 (Invitrogen A11012). DAPI stain was obtained from Sigma Aldrich (D9542). Stained cells were observed using an inverted confocal microscope (Zeiss LSM780).
We obtained stacks of images recorded at 0.35 μm intervals through separate channels with a 63× oil-immersion lens (NA, 1.40, refraction index, 1.45). Zen software (Zeiss) was used to construct composite images from each optical series by combining the images recorded through the different channels, and the same software was used to obtain Z projection images (image resolution: 1024×1024 pixels; pixel size: 0.11 μm). ImageJ was used for morphometry. […]

[1] = tested on: beta-cat binding to KCC2 promoter; experiment: ChIP with anti-beta-cat antibody at KCC2 promoter; format: cell-based, rat; settings: KP-treated vs vehicle
Experimental: ChIP assay was carried out as described previously (Yeo et al., 2009, J Neurosci 29:14652-14662; Yeo et al., 2013, Proc Natl Acad Sci USA 110:4315-4320). Primary cortical neurons (0.7×10^6) were used for each ChIP experiment. Cells were crosslinked with 1% formaldehyde for 30 min, washed twice with cold PBS, resuspended in lysis buffer [1% SDS, 10 mm EDTA, and 50 mm Tris-HCl, pH 8.0, with protease inhibitor cocktail (Roche)], and sonicated for 15 s pulses. The lysates were clarified by centrifugation at 10,000 rpm for 10 min at 4° C. in a microcentrifuge. One-tenth of the total lysate was used as input control of genomic DNA. Supernatants were collected and diluted in buffer (1% Triton X-100, 2 mm EDTA, 150 mm NaCl, 20 mm Tris-HCl, pH 8.0, and protease inhibitor cocktail) followed by immunoclearing with 1 mg of salmon sperm DNA, 10 ml of rabbit IgG, and 20 ml of protein A/G-Sepharose (Santa Cruz Biotechnology) for 1 h at 4° C. Immunoprecipitation was performed overnight at 4° C. with 2 mg of each specific antibody. Precipitates were washed sequentially for 10 min each in TSE1 buffer (0.1% SDS, 1% Triton X-100, 2 mm EDTA, 150 mm NaCl, and 20 mm Tris-HCl, pH 8.0), TSE2 (TSE1 with 500 mm NaCl), and TSE3 (0.25 m LiCl, 1% NP-40, 1% deoxycholate, 1 mm EDTA, and 10 mm Tris-HCl, pH 8.0). […]

GSK3ß = GSK3ß (Homo sapiens, UniProt P49841); settings: literature; cited from earlier work
Sequence of GSK3ß (P49841 whole entry): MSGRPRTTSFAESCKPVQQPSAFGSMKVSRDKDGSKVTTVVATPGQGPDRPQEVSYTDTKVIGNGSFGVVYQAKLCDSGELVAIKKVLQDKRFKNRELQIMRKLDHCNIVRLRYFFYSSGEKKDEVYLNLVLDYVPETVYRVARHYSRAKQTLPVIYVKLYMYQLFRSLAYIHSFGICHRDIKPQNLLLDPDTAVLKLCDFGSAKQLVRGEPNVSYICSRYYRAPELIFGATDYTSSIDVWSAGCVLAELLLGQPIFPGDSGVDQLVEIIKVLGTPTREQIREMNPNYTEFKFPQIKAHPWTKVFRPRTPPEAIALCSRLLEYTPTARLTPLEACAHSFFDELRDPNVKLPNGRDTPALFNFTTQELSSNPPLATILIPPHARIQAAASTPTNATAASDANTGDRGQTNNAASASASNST

O=C1Cc2c([nH]c3ccc(Br)cc23)-c2ccccc2N1 [kenpaullone, 9-bromo-7,12-dihydro-indolo [3,2-d] [1]benzazepin-6(5H)-one]
KCC2 mRNA expression in SCDH lamina-I/II (KCC2 mRNA): rescues significantly attenuated KCC2 mRNA expression | δ-cat nuclear translocation (δ-cat): significantly increases | binding of beta-cat to TCF site [1]: significantly increases binding | potency of GSK3ß inhibition among known targets (GSK3ß): highest potency

— patent US20220281930A1, “COMPOSITIONS AND METHODS FOR THE TREATMENT OF PATHOLOGICAL PAIN AND ITCH” (DUKE UNIVERSITY, priority 2019, published 2022)
